Data reported in US9949976B2, “Kinase inhibitor and use thereof” (Sihuan Pharmaceutical Holdings Group Ltd., priority 2013, dated 2018).
pIC50: −log10 of the molar value. Like-named read-outs stand apart in the source and are kept apart here.

Columns and labels:
[1] = system: MDA-MB-435S human melanoma cell; test: BrdU cell proliferation assay (Cell Signaling kit); format: cell-based; details: 72 h, read-out: In vitro cell-inhibiting activity IC50 MDA-MB-435S
Procedure: (§1) Experimental method: cell proliferation assay was carried out by BrdU method (BrdU cell proliferation assay kit, Cell Signaling Technology Company).
(§2) Preparation of gradient dilution solutions of test compound: the stock solution containing 10 mM test compound was subjected to 4-fold stepwise dilution with DMSO to prepare solutions containing 2.5 mM, 625 μM, 156 μM, 39 μM, 9.8 μM, and 2.5 μM test compound, respectively. 2 μL DMSO-diluted compound was added to 198 μL culture medium containing 10% FBS to prepare […] test compound, wherein the maximum concentration of the test compound was 100 μM, the concentration of DMSO was 1%, and there were 7 concentration gradients.
MDA-MB-435S medium: L-15+10% FBS+0.01 mg/mL insulin
(§3) (1) Cells grown to 80% confluence (in exponential growth phase) were digested with pancreatin, and centrifuged to collect the cells. MDA-MB-435S and U87MG cells were re-suspended in FBS-free culture medium, counted, and seeded to a 96-well plate; MDA-MB-435S cells were seeded at 3000 cells/well/81 μL; U87MG cells were seeded at 4000 cells/well/81 MCF-7 cells were resuspended in culture medium containing 1% FBS, and counted and seeded to a 96-well plate, at 4000 cell/well/82 μL. The plates were placed in a cell incubator at 37° C. […]
(§4) (9) To each well, stop solution (100 μL) was added, and OD value at 450 nm was measured by ELISA instrument […]

[2] = system: MCF-7 human breast cancer cell; test: BrdU cell proliferation assay (Cell Signaling kit); format: cell-based; details: MCF7, 72 h, read-out: In vitro cell-inhibiting activity IC50 MCF-7
Procedure: as §1, §2
MCF-7 medium: DMEM+10% FBS+0.01 mg/mL insulin
as §3, §4

[3] = system: U87MG human glioblastoma cell; test: BrdU cell proliferation assay (Cell Signaling kit); format: cell-based; details: U-87 MG, 72 h, read-out: In vitro cell-inhibiting activity IC50 U87MG
Procedure: as §1, §2
U87MG medium: MEM+10% FBS
as §3, §4

[4] = Pharmacokinetics in nude mouse (IV and PO); format: in vivo; details: female, BALB/c nude, plasma; for bioavailability: read-out: F (absolute bioavailability)
Procedure: Test animal: female nude mouse (BALB/c); control agent: 3 mice/administration route at each time point, weight: 22-25 g/mouse; Compound 1: 3 mice/administration route at each time point, weight: 22-25 g/mouse; Compound 6-1: 6 mice/administration route/test compound, weight: 18-26 g/mouse.
Control agent/Compound 1, IV administration group: before administration, 0.083, 0.25, 0.5, 1, 2, 4, 6, 8, 24, and 30 h after administration; PO administration group (10 mg/kg): before administration, 0.167, 0.5, 1, 2, 4, 6, 8, 24, and 30 h after administration.
Compound 1, PO administration group (100 mg/kg): 0.167, 0.5, 1, 2, 4, 6, 8, 24, 30, and 48 h after administration.
Compound 6-1, IV administration group (2.5 mg/kg) and PO administration group (10 mg/kg): 0.083, 0.25, 0.5, 1, 2, 4, 6, 8 and 24 h after administration; Compound 6-1, PO administration group (100 mg/kg): 0.083, 0.25, 0.5, 1, 2, 4, 6, 8, 24, 30, 48 h after administration.
Control agent/Compound 1: 300 μL whole blood was collected from intraocular canthus at each time point, and was centrifuged at 8000 r/min for 6 min in a high speed centrifuge to separate the plasma; the plasma was stored in a refrigerator at −80° C. Compound 6-1: 60 μL whole blood was collected from intraocular canthus at each time point, and was placed in an anticoagulation tube containing anticoagulant agent K2EDTA; the blood sample was centrifuged at 8000 r/min for 6 min to obtain a plasma sample.
The plasma samples of control agent and compound 1 were analyzed by precipitation of protein: to 50 μL plasma, 200 μL internal standard (acetonitrile solution containing 500 ng/mL Warfarin) was added; the resultant mixture was vortexed for 3 min at 1500 r/min, and centrifuged for 5 min at 13000 r/min; to 100 μL supernatant, 400 μL water was added; the resultant mixture was mixed homogeneously under vortexing and analyzed by LC-MS/MS.
The plasma sample of compound 6-1 was analyzed by precipitation of protein: to a suitable amount of plasma, a given volume of internal standard solution was added; the resultant mixture was vortexed and centrifuged; the supernatant was diluted by adding a given volume of water; the resultant mixture was mixed homogeneously under vortexing and analyzed by LC-MS/MS.

CDK6/D3 = CDK6/D3 (Homo sapiens, UniProt Q00534); test: In vitro enzyme-inhibiting activity, Caliper Mobility Shift method; format: biochemical; details: read-out: CDK enzyme-inhibiting activity IC50 CDK6/D3
Procedure: (§5) Measurement of activity for inhibiting CDK4/6 kinase by Caliper Mobility Shift method.
50 mL stock solution containing 1000 mM HEPES (pH 7.5), and 50 μL stock solution containing 30% Brij-35, were added to 949.95 mL ultra pure water, and the resultant mixture was mixed homogeneously.
(§6) 25 mL stock solution containing 4% Coating Reagent #3 (provided with the 12-sipper chip used in Caliper device), 50 mL stock solution containing 1000 mM HEPES (pH 7.5), 50 mL stock solution containing 0.5 M EDTA, and 0.25 mL stock solution containing 30% Brij-35, were added to 374.75 mL ultra pure water, and the resultant mixture was mixed homogeneously.
18 μL CDK6/D3 enzyme solution, and 14 μL stock solution containing 1M DTT were added to 2768 μL 1-fold CDK6 kinase buffer, and the resultant mixture was mixed homogeneously.
23 μL stock solution containing 100 mM ATP, 75 μL stock solution containing 1M MgCl2, and 75 μL FAM-tagged polypeptide 8, were added to 2827 μL 1-fold CDK6 kinase buffer, and the resultant mixture was mixed homogeneously.
(§7) DMSO solution containing 10 mM test compound was diluted with DMSO to a solution containing 50 μM test compound (which was used as a stock solution).
(§8) 1) 5 μL 5-fold test compound solution and 10 μL 2.5-fold kinase solution were added to the corresponding wells in a 384-well plate, and incubated at room temperature for 10 min.
(§9) 2) To the corresponding wells, 10 μL 2.5-fold polypeptide solution was added to start the enzymatic reaction, and incubation was performed at 28° C. for 5 h.
(§10) To the corresponding wells, 25 μL stop solution was added to stop the reaction.
(§11) The data was read by Caliper device, the inhibition rate was calculated by the following formula, and curve fitting was carried out by GraphPad5.0 software to get IC50 value. Inhibition rate=(maximal value−sample value)/(maximal value−minimal value)×100, wherein, maximal value: positive control without addition of test compound; minimal value: negative control without addition of enzyme.

CDK4/D3 = CDK4/D3 (Homo sapiens, UniProt P11802); test: as above; format: biochemical; details: read-out: CDK enzyme-inhibiting activity IC50 CDK4/D3
CDK4/D3, sequence (P11802 whole entry): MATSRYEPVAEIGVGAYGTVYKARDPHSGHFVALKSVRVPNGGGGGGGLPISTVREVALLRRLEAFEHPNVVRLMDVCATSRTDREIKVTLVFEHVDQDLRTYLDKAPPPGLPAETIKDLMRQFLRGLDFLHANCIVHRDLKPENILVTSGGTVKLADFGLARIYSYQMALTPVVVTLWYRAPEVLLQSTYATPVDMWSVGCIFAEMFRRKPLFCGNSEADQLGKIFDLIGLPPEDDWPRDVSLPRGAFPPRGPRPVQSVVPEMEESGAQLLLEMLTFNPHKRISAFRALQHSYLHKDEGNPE
CDK4/D3, sequence (P30281 whole entry partner): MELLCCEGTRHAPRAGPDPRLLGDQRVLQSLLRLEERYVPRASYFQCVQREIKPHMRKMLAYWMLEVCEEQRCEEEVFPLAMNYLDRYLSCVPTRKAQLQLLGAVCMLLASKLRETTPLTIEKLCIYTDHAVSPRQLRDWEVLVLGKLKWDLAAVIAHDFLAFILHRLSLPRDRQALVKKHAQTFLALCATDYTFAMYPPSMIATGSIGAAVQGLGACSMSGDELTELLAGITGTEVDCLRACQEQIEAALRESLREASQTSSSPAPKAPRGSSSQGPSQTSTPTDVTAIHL
Procedure: as §5
1) Preparation of 1-Fold Buffer for CDK4 Kinase 800 μL stock solution containing 1000 mM HEPES (pH 7.5), and 40 μL stock solution containing 10% Triton X-100, were added to 39160 μL ultra pure water, and the resultant mixture was mixed homogeneously.
as §6
7 μL CDK4/D3 enzyme solution, and 9 μL stock solution containing 1M DTT were added to 1784 μL 1-fold CDK4 kinase buffer, and the resultant mixture was mixed homogeneously.
10 μL stock solution containing 100 mM ATP, 45 μL stock solution containing 1M MgCl2, and 45 μL FAM-tagged polypeptide 8, were added to 1700 μL 1-fold CDK4 kinase buffer, and the resultant mixture was mixed homogeneously.
as §7, §8, §9, §10, §11

CDK6/D3, sequence (Q00534 whole entry): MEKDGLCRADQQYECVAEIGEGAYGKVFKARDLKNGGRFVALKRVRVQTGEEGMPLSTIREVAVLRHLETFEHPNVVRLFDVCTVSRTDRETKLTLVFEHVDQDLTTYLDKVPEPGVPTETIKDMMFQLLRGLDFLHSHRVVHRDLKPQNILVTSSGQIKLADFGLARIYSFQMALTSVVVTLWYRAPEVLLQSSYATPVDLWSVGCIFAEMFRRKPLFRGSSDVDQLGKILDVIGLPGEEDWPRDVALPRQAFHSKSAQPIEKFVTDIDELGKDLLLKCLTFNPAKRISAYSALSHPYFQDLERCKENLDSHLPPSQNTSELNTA
CDK6/D3, sequence (P30281 whole entry partner): as the sequence (P30281 whole entry partner) above

| pIC50 [1] | pIC50 [2] | pIC50 [3] | AUC(0-t) ([4]; IV, 2.5 mg/kg) [ng·h/mL] | clearance ([4]; IV, 2.5 mg/kg) [mL/min/kg] | Vd ([4]; IV, 2.5 mg/kg, read-out: Vss) [L/kg] | AUC(0-t) ([4]; PO, 10 mg/kg) [ng·h/mL] | Cmax ([4]; PO, 10 mg/kg) [ng/mL] | Tmax ([4]; PO, 10 mg/kg) [h] | bioavailability ([4]; PO, 10 mg/kg) [%] | AUC(0-t) ([4]; PO, 200 mg/kg) [ng·h/mL] | Cmax ([4]; PO, 200 mg/kg) [ng/mL] | Tmax ([4]; PO, 200 mg/kg) [h] | bioavailability ([4]; PO, 200 mg/kg) [%] | pIC50 (CDK6/D3) | pIC50 (CDK4/D3) | Structure (SMILES) |
| --- | --- | --- | --- | --- | --- | --- | --- | --- | --- | --- | --- | --- | --- | --- | --- | --- |
| 7.15 | 7.08 | 7.33 | 985 | 40.2 | 12.5 | 1410 | 300 | 2 | 39.3 | 90900 | 5370 | 2 | 115 | – | – | Cc1nc2c(F)cc(-c3cc(Nc4ncc(CN5C[C@H]6CN(C)C[C@H]6C5)cn4)ncc3F)cc2n1C(C)C [Compound 6-1, N-(5-fluoro-4-(4-fluoro-1-isopropyl-2-methyl-1H-benzo[d]imidazol-6-yl)pyridin-2-yl)-5-(((cis)-5-methylhexahydropyrrolo[3,4-c]pyrrol-2(1H)-yl)methyl)pyrimidin-2-amine] |
| – | – | – | – | – | – | – | – | – | – | – | – | – | – | 7.50 | 8.52 | CCN1CC2CCC(C1)N2Cc1cnc(Nc2cc(-c3cc(F)c4nc(C)n(C(C)C)c4c3)c(F)cn2)nc1 [Compound 13, 5-((3-ethyl-3,8-diazabicyclo[3.2.1]octan-8-yl)methyl)-N-(5-fluoro-4-(4-fluoro-1-isopropyl-2-methyl-1H-benzo[d]imidazol-6-yl)pyridin-2-yl)pyrimidin-2-amine] |
| – | – | – | – | – | – | – | – | – | – | – | – | – | – | 7.64 | 8.59 | CCN1C2CCC1CN(Cc1cnc(Nc3cc(-c4cc(F)c5nc(C)n(C(C)C)c5c4)c(F)cn3)nc1)C2 [Compound 14, 5-((8-ethyl-3,8-diazabicyclo[3.2.1]octan-3-yl)methyl)-N-(5-fluoro-4-(4-fluoro-1-isopropyl-2-methyl-1H-benzo[d]imidazol-6-yl)pyridin-2-yl)pyrimidin-2-amine] |
